Measurements from PMC9532951, “Identification and characterization of a novel SNAT2 (SLC38A2) inhibitor reveals synergy with glucose transport inhibition in cancer cells” (Frontiers in Pharmacology, 2022).
Values joined by “and” are separate entries in the source; they are usually repeats but may differ in a detail not shown here. Equal values may be shown once. Read-outs that look alike come from different tables or passages of the source.

Tests used:
[1] = tested on: HPAFII cells; experiment: Growth assay (IncuCyte confluence), HPAFII; type: cell-based, human; parameters: key to Growth (Figure 6A) / cell confluence (Figure 6F): % confluence
Experimental: (§1) Cells were seeded on 96-well flat bottom plates at approximately 3000 cells/well and incubated in growth medium (DMEM/F12 supplemented with 10% FBS, 2 mM glutamine) for 24 h. The next day, the growth medium was aspirated and exchanged with 300 μL/well of growth medium containing compounds at the indicated concentration. For live cell analysis, plates were placed in the IncuCyte system (Essen Bioscience), which was housed in a cell incubator (37°C, humidified atmosphere composed of 95% air and 5% CO2) and confluence measured at 6-h intervals or at the assay endpoint when untreated control cells reached a confluency >90%. Antibiotics (10 U/mL penicillin and 10 μg/ml streptomycin) were included in the treatment solutions.
(§2) Growth curves were generated using the Gompertz function of OriginPro software: y=ae^−e^(−k(x−xc))
(§3) Where a is the maximum confluence or upper asymptote, k is the growth rate coefficient, xc is the time point at which 50% confluence is reached (inflection point) and e is Euler’s number. Cell growth data are shown as % confluence.
(§4) Synergism between drug combinations was quantified using ZIP synergy scoring as calculated by SynergyFinder ([Yadav et al., 2015]).

[2] = tested on: MDA-MB-231 cells; experiment: Growth assay (IncuCyte confluence), MDA-MB-231; type: cell-based, human; parameters: key to Growth (Figure 6A) / cell confluence (Figure 6F): % confluence; settings: for Growth (Figure 6A): MDA-MB-231
Experimental: as §1, §2, §3, §4

[3] = tested on: SKOV3 cells; experiment: Growth assay (IncuCyte confluence), SKOV3; type: cell-based, human; parameters: key to Growth (Figure 6A): % confluence; settings: for Growth (Figure 6A): SKOV3
Experimental: as §1, §2, §3

[4] = tested on: HCC1806 wild-type cells; experiment: FMP assay in the absence of amino acid substrate (non-specific effects); type: cell-based, human
Experimental: (§5) The FLIPR Membrane Potential Blue Explorer Kit (Molecular Devices) was used to characterise inhibitors and to optimise a high-throughput compound screen. Cells were seeded at approximately 60,000 cells/well on a 96-well plate and allowed to attach and grow overnight in a cell incubator. The next day, the cells were washed once with mHBSS and incubated in a starvation medium (composed of mHBSS with 1% dialysed heat-inactivated FBS, 23 mM NaHCO3, 10 U/ml penicillin and 10 μg/ml streptomycin) for 24 h. Cells were then washed once with mHBSS and incubated with 50 µl of the mHBSS-resuspended FMP assay dye and 50 µl of mHBSS (with or without inhibitors) and incubated at room temperature for 30 min. The plate was then placed in an EnSpire Multimode plate reader (PerkinElmer) and four sequential measurements of fluorescence were recorded as a baseline reference. […] The excitation wavelength was set to 530 nm and the emission was detected at 565 nm. The Δ fluorescent signal reported in the figures was taken 30 s after substrate addition. After the assay was complete, the liquid content of the plate was carefully removed, and the cell monolayer inspected to ensure it remained intact throughout the course of the assay.

[5] = target: T1, SNAT2 (Homo sapiens, UniProt Q96QD8); experiment: FMP assay with betaine in amino acid depleted SKOV3 cells; type: cell-based; parameters: SKOV3 cells were pre-incubated in starvation medium for 15 h to induce SNAT2 expression; endogenous in cells; host or cells: SKOV3 ovarian cancer cells, amino acid depleted for 15 h
T1 sequence (Q96QD8 1-506): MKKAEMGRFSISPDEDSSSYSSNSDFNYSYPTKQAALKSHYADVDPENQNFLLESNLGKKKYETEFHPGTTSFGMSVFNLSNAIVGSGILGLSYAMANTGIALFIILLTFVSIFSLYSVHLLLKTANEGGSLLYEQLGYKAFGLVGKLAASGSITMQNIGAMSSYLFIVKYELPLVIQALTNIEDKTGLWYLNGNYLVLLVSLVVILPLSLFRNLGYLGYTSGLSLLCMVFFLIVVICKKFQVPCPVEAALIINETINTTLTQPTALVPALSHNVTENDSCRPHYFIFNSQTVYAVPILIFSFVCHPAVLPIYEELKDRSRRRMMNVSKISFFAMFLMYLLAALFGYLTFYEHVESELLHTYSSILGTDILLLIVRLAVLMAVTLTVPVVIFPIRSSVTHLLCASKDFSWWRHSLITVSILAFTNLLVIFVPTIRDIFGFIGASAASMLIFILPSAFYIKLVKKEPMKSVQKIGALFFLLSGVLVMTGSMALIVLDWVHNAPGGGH
Experimental: as §5

Cc1ccc(S(=O)(=O)N(C)c2ccsc2C(=O)NCc2ccccc2C(F)(F)F)cc1 [Compound 57_E, 3-(N-methyl (4-methylphenyl)sulfonamido)-N-(2-trifluoromethylbenzyl)thiophene-2-carboxamide]
tolerated concentration [1]: ≤ 100 µM
Growth (Figure 6A) ([1]; concentration 1): 93.8 and 96.25 and 96.4
Growth (Figure 6A) ([1]; concentration 3): 93.35 and 98.85 and 97.6
Growth (Figure 6A) ([1]; concentration 10): 91.1 and 94.2 and 97.05
Growth (Figure 6A) ([1]; concentration 30): 73 and 75.75 and 89.85
Growth (Figure 6A) ([1]; concentration 100): 46.05 and 59.8 and 57.25
tolerated concentration ([1]; growth medium): up to 30 μM
tolerated concentration ([2]; MDA-MB-231, growth medium): up to 30 μM
Growth (Figure 6A) ([2]; concentration 1): 82.35 and 90.35 and 97.85
Growth (Figure 6A) ([2]; concentration 3): 76.3 and 97.1 and 98.3
Growth (Figure 6A) ([2]; concentration 10): 70.5 and 94.85 and 92.9
Growth (Figure 6A) ([2]; concentration 30): 68.4 and 70.75 and 88.35
Growth (Figure 6A) ([2]; concentration 100): 57.95 and 91.15 and 66.7
growth of SKOV3 cells ([3]; 57E 20 µM alone): did not slow growth
tolerated concentration ([3]; SKOV3, growth medium): up to 30 μM
Growth (Figure 6A) ([3]; concentration 1): 88.8 and 91.35 and 86.25
Growth (Figure 6A) ([3]; concentration 3): 85.9 and 94.3 and 88.85
Growth (Figure 6A) ([3]; concentration 10): 89 and 93.8 and 85
Growth (Figure 6A) ([3]; concentration 30): 64.8 and 80.1 and 77.7
Growth (Figure 6A) ([3]; concentration 100): 70.05 and 72.4 and 76.75
effect on FMP signal without substrate ([4]; 30 µM): small hyperpolarisation
FMP fluorescence trace (Figure 4C) ([4]; time 0): 66214 and 65985 and 59075
FMP fluorescence trace (Figure 4C) ([4]; time 20): 50115 and 66503 and 60514
FMP fluorescence trace (Figure 4C) ([4]; time 40): 49573 and 67066 and 60917
FMP fluorescence trace (Figure 4C) ([4]; time 60): 49249 and 67578 and 60989
FMP fluorescence trace (Figure 4C) ([4]; time 80): 48925 and 68056 and 61565
FMP fluorescence trace (Figure 4C) ([4]; time 100): 48207 and 68319 and 61663
FMP fluorescence trace (Figure 4C) ([4]; time 120): 47392 and 68434 and 62185
FMP fluorescence trace (Figure 4C) ([4]; time 140): 47194 and 68990 and 62194
FMP fluorescence trace (Figure 4C) ([4]; time 160): 46255 and 69305 and 62352
FMP fluorescence trace (Figure 4C) ([4]; time 180): 45269 and 69919 and 62492
FMP fluorescence trace (Figure 4C) ([4]; time 200): 44480 and 70206 and 63053
FMP fluorescence trace (Figure 4C) ([4]; time 220): 43946 and 70155 and 63572
FMP fluorescence trace (Figure 4C) ([4]; time 240): 43376 and 70703 and 63707
FMP fluorescence trace (Figure 4C) ([4]; time 260): 42447 and 71161 and 64093
FMP fluorescence trace (Figure 4C) ([4]; time 280): 41764 and 71707 and 64350
FMP fluorescence trace (Figure 4C) ([4]; time -20): 65818 and 65842 and 59063
FMP fluorescence trace (Figure 4C) ([4]; time -40): 65477 and 66036 and 58494

C[N+](C)(C)CC(=O)O [Betaine, betaine]
Km ([5]; SKOV3, 15 h starvation): 4.3 ± 0.4 mM
FMP fluorescence trace (Figure 4E) ([5]; concentration 0.03, time 45): 36191 and 39302 and 41186
FMP fluorescence trace (Figure 4E) ([5]; concentration 0.03, time 60): 36028 and 39595 and 40874
FMP fluorescence trace (Figure 4E) ([5]; concentration 0.03, time 75): 36276 and 39484 and 40680
FMP fluorescence trace (Figure 4E) ([5]; concentration 0.03, time 90): 36701 and 39571 and 40731
FMP fluorescence trace (Figure 4E) ([5]; concentration 0.03, time 105): 36288
FMP fluorescence trace (Figure 4E) ([5]; concentration 0.1, time 45): 39809 and 43033 and 44738
FMP fluorescence trace (Figure 4E) ([5]; concentration 0.1, time 60): 40091 and 43354 and 44846
FMP fluorescence trace (Figure 4E) ([5]; concentration 0.1, time 75): 40044 and 43600 and 44897
FMP fluorescence trace (Figure 4E) ([5]; concentration 0.1, time 90): 40287 and 43518 and 45010
FMP fluorescence trace (Figure 4E) ([5]; concentration 0.3, time 45): 39193 and 54954 and 48855
FMP fluorescence trace (Figure 4E) ([5]; concentration 0.3, time 60): 39317 and 55361 and 48804
FMP fluorescence trace (Figure 4E) ([5]; concentration 0.3, time 75): 39855 and 55442 and 48718
FMP fluorescence trace (Figure 4E) ([5]; concentration 0.3, time 90): 39384 and 55296 and 48820
FMP fluorescence trace (Figure 4E) ([5]; concentration 0.3, time 105): 39825 and 55517 and 48933
FMP fluorescence trace (Figure 4E) ([5]; concentration 1, time 45): 52793 and 67651 and 60777
FMP fluorescence trace (Figure 4E) ([5]; concentration 1, time 60): 53223 and 68372 and 61573
FMP fluorescence trace (Figure 4E) ([5]; concentration 1, time 75): 53467 and 68816 and 61749
FMP fluorescence trace (Figure 4E) ([5]; concentration 1, time 90): 53620 and 69372 and 62182
FMP fluorescence trace (Figure 4E) ([5]; concentration 1, time 105): 53487 and 69294 and 62105
FMP fluorescence trace (Figure 4E) ([5]; concentration 3, time 45): 69502 and 81716 and 75888
FMP fluorescence trace (Figure 4E) ([5]; concentration 3, time 60): 70408 and 83092 and 76997
FMP fluorescence trace (Figure 4E) ([5]; concentration 3, time 75): 71034 and 84131 and 77980
FMP fluorescence trace (Figure 4E) ([5]; concentration 3, time 90): 71787 and 84660 and 78697
FMP fluorescence trace (Figure 4E) ([5]; concentration 3, time 105): 71870 and 85004 and 78476
FMP fluorescence trace (Figure 4E) ([5]; concentration 10, time 45): 84051 and 99553 and 93004
FMP fluorescence trace (Figure 4E) ([5]; concentration 10, time 60): 86308 and 101988 and 95225
FMP fluorescence trace (Figure 4E) ([5]; concentration 10, time 75): 87856 and 103721 and 96631
FMP fluorescence trace (Figure 4E) ([5]; concentration 10, time 90): 88823 and 104893 and 97518
FMP fluorescence trace (Figure 4E) ([5]; concentration 10, time 105): 89188 and 106421 and 98442
FMP fluorescence trace (Figure 4E) ([5]; concentration 30, time 45): 86227 and 101310 and 96479
FMP fluorescence trace (Figure 4E) ([5]; concentration 30, time 60): 89361 and 105122 and 98804
FMP fluorescence trace (Figure 4E) ([5]; concentration 30, time 75): 91535 and 107806 and 101327
FMP fluorescence trace (Figure 4E) ([5]; concentration 30, time 90): 92748 and 109815 and 102783
FMP fluorescence trace (Figure 4E) ([5]; concentration 30, time 105): 93673 and 111181 and 103799
